These results are taken from paper PMC7999199, “Novel Cationic Meso-Arylporphyrins and Their Antiviral Activity against HSV-1” (Pharmaceuticals, 2021).

Molecules are shown by their SMILES.

For series [1], the system named is Vero cells. Description: Vero cell viability, MTT test, 72 h. Conditions: MTT; for Viability % ±s.d.: +F127 (Pluronic F-127), Vero, 3 days. The class given is cell-based, African green monkey. The method, then: Before testing antiviral activity, the effect of porphyrins dissolved in PBS and Pluronic F-127 on the viability of Vero cells was evaluated. Cells were incubated for 72 h using different concentrations of porphyrins (0.39–100 μM). Viability was assessed using the MTT test (Figure S13, Table S1, Supplementary Information). The viability of Vero cells depends on the porphyrins’ structure and formulation.
Cell viability was assessed by MTT reduction assay. Briefly, confluent monolayer Vero cells in 96-well plates (15000 cells/well) were incubated for 72 h with different concentrations of the compounds ranging from 0.39 µM to 100 µM in DMEM-1% FCS at 36.8 °C in 5% CO2 atmosphere. Next, cells were incubated for 1 h with 1.0 mg/mL of 3-(4,5-dimethylthiazol-2-y1)-2,5-diphenyltetrazolium bromide (MTT, PanEco, Moscow, Russia) at 36.8 °C, and then the solution was removed, and precipitated formazan was diluted in DMSO (PanEco, Moscow, Russia). The solution was read on a spectrophotometer at 540 nm. For each concentration, the average cell viability was calculated from the data of three experiments with three replicates each and was expressed as a percentage compared to the untreated cells (100%).
Table s1. Vero cell viability after exposure to 3a, 3b, TMEPyP compounds dissolved in PBS and Pluronic F-127. Different concen-
trations of compounds were applied to the cell monolayer and after incubation for 3 days, the number of living cells was calculated
in the MTT test. Each point represents the mean ± standard deviation of three experiments with […] each. n.d. –not done.
Compound Concentration, µM/L Viability % ±s.d.
A general note: Tetrazolium dyes change colour on reduction, which living cells bring about.

Series [2] can be described thus: Micelle size of Pluronic F-127 formulations by dynamic light scattering. The class given is physicochemical. The settings on record: Pluronic F-127 micelles, concentration 3·10^−6 M. The method, then:
The size of obtained micelles for the compounds 3a,b was determined by the dynamic light scattering (DLS) method. The micelle size for compounds 3a,b was 17.53 nm and 14.69 nm, respectively, at concentrations of 3·10^−6 M (Figure 4a,b). It has previously been reported that a similar micelle size increased the efficiency and circulation of the encapsulated drug in the blood due to the small scale, which avoided the capture of nanoparticles by the reticular endothelial system.
NMR (^1H and ^13C) spectra of the test solutions in CDCl3 or (CD3OD) were recorded on a Bruker MSL-300 pulse Fourier transform spectrometer (Bruker, Billerica, MA, USA) at frequencies of 300.3 and 75.49 MHz, respectively, with internal deuterium stabilization. Tetramethylsilane was used as an external standard. IR spectra (4000–500 cm^–1) were recorded on Infralyum FT 02 Fourier spectrometer (Lumex Instruments Research and Production Company, Moscow, Russia) with a resolution of 1 cm^−1. Samples were prepared as KBr tablets. Dynamic light scattering was measured using Malvern Zetasizer Nano ZS (Malvern, United Kingdom). […] Mass spectra were recorded using an 1100 LCMSD liquid chromatograph (Agilent Technologies, Santa Clara, CA, USA) equipped with a mass spectrometric chemical ionization detector at atmospheric pressure (HIAD, APCI, ESI) and with a UV spectrophotometric detector (DAD). […]

For the molecule `O=C(CCCCC[n+]1ccccc1)Oc1ccc(-c2c3nc(c(-c4ccc(OC(=O)CCCCC[n+]5ccccc5)cc4)c4ccc([nH]4)c(-c4ccc(OC(=O)CCCCC[n+]5ccccc5)cc4)c4nc(c(-c5ccc(OC(=O)CCCCC[n+]6ccccc6)cc5)c5ccc2[nH]5)C=C4)C=C3)cc1` [3b, 5,10,15,20-tetrakis(4-(6-pyridyl-n-hexanoyl)oxyphenyl)porphyrin tetrabromide], the “Viability % ±s.d.” value in series [1] (0.39 µM/L) was found to be 97.6±6.9%; in series [1] (0.78 µM/L) it was 81.3±10.8%; in series [1] (1.56 µM/L), 82.7±19.5%; in series [1] (3.13 µM/L) it was 79.6±9.6%; in series [1] (6.25 µM/L), 63.4±8.1%; in series [1] (12.50 µM/L) it was 67.7±11.5%. Also, the “Viability % ±s.d.” value in series [1] (25 µM/L) worked out at 58.4±4.4%; in series [1] (50 µM/L) it was 41.3±2.7%; in series [1] (100 µM/L), 25.0±1.9%. In addition, in series [1] (Pluronic F-127 (F127) micellar formulation, Vero cells, 72 h), the cytotoxic concentration (CC50) – broadly, the concentration at which the toxic effect on the cells reaches its halfway point – turned out to be 27 µM. In addition, in series [2], the “micelle size (DLS)” value was 14.69 nm.
